Data published in patent publication US9695155B2, “Herbicidal substituted pyrimidinyloxy benzene compounds” (E. I. DU PONT DE NEMOURS AND COMPANY, priority 2013, dated 2017).

Key:
giant foxtail [1] = assay: Test C postemergence; type: in vivo, Setaria faberii; settings: for Plant response rating, Foxtail, Giant: Postemergence
Summary of the method: (§1)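 Rated visually on 0–100 (100 = complete control) after 13–15 days under glass. Treatments went onto freshly seeded loam/sand soil or onto emerged plants at the 1- to 4-leaf stage, using a surfactant-containing solvent formulation.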

giant foxtail [2] = assay: Test A postemergence; type: in vivo, Setaria faberii; settings: 0 to 100 scale where 0 is no effect and 100 is complete control
Summary of the method: (§2)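 Visual 0–100 rating (100 = complete control) taken about 10 d post-treatment relative to untreated checks. Preemergence: directed soil spray on sown loam/sand pots. Postemergence: seedlings 2–10 cm, 1–2 leaf. Non-phytotoxic solvent formulation with surfactant.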

ragweed [3] = assay: Test C preemergence; type: in vivo, Ambrosia elatior; settings: for Ragweed plant response rating: preemergence
Summary of the method: as §1

morningglory [4] = assay: Test C postemergence; type: in vivo, Ipomoea coccinea; settings: for Plant response rating, Morningglory: Postemergence, scale 0 to 100 (0 no effect, 100 complete control)
Summary of the method: as §1

galium = assay: Test C preemergence; type: in vivo, Galium aparine; settings: for Galium plant response rating: preemergence
Summary of the method: as §1

waterhemp = assay: Test C postemergence; type: in vivo, Amaranthus rudis; settings: for Plant response rating, Waterhemp: Postemergence, scale 0 to 100 (0 no effect, 100 complete control)
Summary of the method: as §1

ragweed [5] = assay: Test C postemergence; type: in vivo, Ambrosia elatior; settings: for Plant response rating, Ragweed: Postemergence, scale 0 to 100 (0 no effect, 100 complete control)
Summary of the method: as §1

lambsquarters [6] = assay: Test C preemergence; type: in vivo, Chenopodium album; settings: for Lambsquarters plant response rating: preemergence
Summary of the method: as §1

corn [7] = assay: Test A postemergence; type: in vivo, Zea mays; settings: 0 to 100 scale where 0 is no effect and 100 is complete control
Summary of the method: as §2

soybean = assay: Test C postemergence; type: in vivo, Glycine max; settings: for Plant response rating, Soybean: Postemergence, scale 0 to 100 (0 no effect, 100 complete control)
Summary of the method: as §1

pigweed [8] = assay: Test A postemergence; type: in vivo, Amaranthus retroflexus; settings: 0 to 100 scale where 0 is no effect and 100 is complete control
Summary of the method: as §2

large (Lg) crabgrass = assay: Test C postemergence; type: in vivo, Digitaria sanguinalis; settings: for Plant response rating, Crabgrass, Large: Postemergence
Summary of the method: as §1

morningglory [9] = assay: Test C preemergence; type: in vivo, Ipomoea coccinea; settings: for Morningglory plant response rating: preemergence
Summary of the method: as §1

velvetleaf = assay: Test C preemergence; type: in vivo, Abutilon theophrasti; settings: for Velvetleaf plant response rating: preemergence
Summary of the method: as §1

pigweed [10] = assay: Test C postemergence; type: in vivo, Amaranthus retroflexus; settings: for Plant response rating, Pigweed: Postemergence, scale 0 to 100 (0 no effect, 100 complete control)
Summary of the method: as §1

corn [11] = assay: Test C preemergence; type: in vivo, Zea mays; settings: for Corn plant response rating: preemergence
Summary of the method: as §1

lambsquarters [12] = assay: Test C postemergence; type: in vivo, Chenopodium album; settings: for Plant response rating, Lambsquarters: Postemergence, scale 0 to 100 (0 no effect, 100 complete control)
Summary of the method: as §1

[13] = 16 g ai/ha, postemergence, visual rating, scale 0 to 100 (0 no effect, 100 complete control), 13 to 15 days
[14] = 31 g ai/ha, scale 0 to 100 (0 no effect, 100 complete control), 13 to 15 days
[15] = 62 g ai/ha, scale 0 to 100 (0 no effect, 100 complete control)
[16] = 16 g ai/ha, scale 0 to 100 (0 no effect, 100 complete control)
[17] = 62 g ai/ha, scale 0 (no effect) to 100 (complete control)
[18] = 125 g ai/ha, scale 0 (no effect) to 100 (complete control)
[19] = Preemergence, 31 g ai/ha, scale 0 to 100, 0 no effect, 100 complete control

CCOc1cnn(-c2c(C#N)cccc2Oc2ncc(F)cn2)c1 [Compound 89]
Foxtail, Giant plant response rating (giant foxtail [1]; [13]): 5
Plant response rating (0 to 100), Foxtail, Giant (giant foxtail [1]; 125 g ai/ha, postemergence): 10
Plant response rating, Foxtail, Giant (giant foxtail [1]; [14]): 5
Plant response rating, Foxtail, Giant (giant foxtail [1]; [15]): 5
Plant response rating, Foxtail, Giant (giant foxtail [2]; 125 g ai/ha): 80
Plant response rating, Foxtail, Giant (giant foxtail [2]; 500 g ai/ha): 90
Ragweed plant response rating (ragweed [3]; [16]): 40
Ragweed plant response rating (ragweed [3]; [17]): 75
Ragweed plant response rating (ragweed [3]; [18]): 100
Plant response rating, Ragweed (ragweed [3]; [19]): 55
Plant response rating (0 to 100), Morningglory (morningglory [4]; 125 g ai/ha, postemergence): 85
Plant response rating, Morningglory (morningglory [4]; 31 g ai/ha, 13 to 15 days): 70
Plant response rating, Morningglory (morningglory [4]; 62 g ai/ha): 55
Galium plant response rating (galium; [16]): 30
Galium plant response rating (galium; [17]): 85
Galium plant response rating (galium; [18]): 100
Plant response rating, Galium (galium; [19]): 100
Plant response rating (0 to 100), Waterhemp (waterhemp; 125 g ai/ha, postemergence): 60
Plant response rating, Waterhemp (waterhemp; 31 g ai/ha, 13 to 15 days): 40
Plant response rating, Waterhemp (waterhemp; 62 g ai/ha): 30
Plant response rating (0 to 100), Ragweed (ragweed [5]; 125 g ai/ha, postemergence): 70
Plant response rating, Ragweed (ragweed [5]; 31 g ai/ha, 13 to 15 days): 40
Plant response rating, Ragweed (ragweed [5]; 62 g ai/ha): 60
Lambsquarters plant response rating (lambsquarters [6]; [16]): 45
Lambsquarters plant response rating (lambsquarters [6]; [17]): 95
Lambsquarters plant response rating (lambsquarters [6]; [18]): 100
Plant response rating, Lambsquarters (lambsquarters [6]; [19]): 80
Plant response rating, Corn (corn [7]; 125 g ai/ha): 60
Plant response rating, Corn (corn [7]; 500 g ai/ha): 90
Plant response rating (0 to 100), Soybean (soybean; 125 g ai/ha, postemergence): 95
Plant response rating, Soybean (soybean; 31 g ai/ha, 13 to 15 days): 65
Plant response rating, Soybean (soybean; 62 g ai/ha): 90
Plant response rating, Pigweed (pigweed [8]; 125 g ai/ha): 90
Plant response rating, Pigweed (pigweed [8]; 500 g ai/ha): 100
Crabgrass, Large plant response rating (large (Lg) crabgrass; [13]): 5
Plant response rating (0 to 100), Crabgrass, Large (large (Lg) crabgrass; 125 g ai/ha, postemergence): 5
Plant response rating, Crabgrass, Large (large (Lg) crabgrass; [14]): 5
Plant response rating, Crabgrass, Large (large (Lg) crabgrass; [15]): 5
Morningglory plant response rating (morningglory [9]; [16]): 45
Morningglory plant response rating (morningglory [9]; [17]): 95
Morningglory plant response rating (morningglory [9]; [18]): 98
Plant response rating, Morningglory (morningglory [9]; [19]): 35
Velvetleaf plant response rating (velvetleaf; [16]): 20
Velvetleaf plant response rating (velvetleaf; [17]): 100
Velvetleaf plant response rating (velvetleaf; [18]): 100
Plant response rating, Velvetleaf (velvetleaf; [19]): 70
Plant response rating (0 to 100), Pigweed (pigweed [10]; 125 g ai/ha, postemergence): 40
Plant response rating, Pigweed (pigweed [10]; 31 g ai/ha, 13 to 15 days): 35
Plant response rating, Pigweed (pigweed [10]; 62 g ai/ha): 35
Corn plant response rating (corn [11]; [16]): 0
Corn plant response rating (corn [11]; [17]): 0
Corn plant response rating (corn [11]; [18]): 5
Plant response rating, Corn (corn [11]; [19]): 0
Plant response rating (0 to 100), Lambsquarters (lambsquarters [12]; 125 g ai/ha, postemergence): 55
Plant response rating, Lambsquarters (lambsquarters [12]; 31 g ai/ha, 13 to 15 days): 30
Plant response rating, Lambsquarters (lambsquarters [12]; 62 g ai/ha): 65
